Calls of active or inactive are those of the source.
Tests used:
[1] = target: T1, Kappa-type opioid receptor (Homo sapiens, UniProt P41145); type: functional
[2] = cytotoxicity in HEK-293T cells, dose response, cytotoxicity control for TCR NF-kB inhibitor project, luminescence, T-cell screen hits (AID 489026); type: functional, cell-based;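 note: cells exposed to compound about 14 hours before the viability readout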
[3] = cytotoxicity toward NIH3T3 fibroblasts, dose response, counter-screen, cell-based, ATP luminescence, mouse fibroblasts (AID 2010); type: functional;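 note: cells exposed to compound for about 90 hours before reading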
[4] = Shn3 3'UTR reporter inhibitors, dose response, cell-based, Clone20 osteoblasts, firefly luciferase, cherry-picked (AID 624132); type: functional;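 note: firefly luciferase luminescence from reporter carrying the Shn3 3'UTR in osteoblasts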
Beta-galactosidase = Beta-galactosidase (Escherichia coli, UniProt Q8VNN2); type: functional
Sequence of Beta-galactosidase (Q8VNN2 whole entry): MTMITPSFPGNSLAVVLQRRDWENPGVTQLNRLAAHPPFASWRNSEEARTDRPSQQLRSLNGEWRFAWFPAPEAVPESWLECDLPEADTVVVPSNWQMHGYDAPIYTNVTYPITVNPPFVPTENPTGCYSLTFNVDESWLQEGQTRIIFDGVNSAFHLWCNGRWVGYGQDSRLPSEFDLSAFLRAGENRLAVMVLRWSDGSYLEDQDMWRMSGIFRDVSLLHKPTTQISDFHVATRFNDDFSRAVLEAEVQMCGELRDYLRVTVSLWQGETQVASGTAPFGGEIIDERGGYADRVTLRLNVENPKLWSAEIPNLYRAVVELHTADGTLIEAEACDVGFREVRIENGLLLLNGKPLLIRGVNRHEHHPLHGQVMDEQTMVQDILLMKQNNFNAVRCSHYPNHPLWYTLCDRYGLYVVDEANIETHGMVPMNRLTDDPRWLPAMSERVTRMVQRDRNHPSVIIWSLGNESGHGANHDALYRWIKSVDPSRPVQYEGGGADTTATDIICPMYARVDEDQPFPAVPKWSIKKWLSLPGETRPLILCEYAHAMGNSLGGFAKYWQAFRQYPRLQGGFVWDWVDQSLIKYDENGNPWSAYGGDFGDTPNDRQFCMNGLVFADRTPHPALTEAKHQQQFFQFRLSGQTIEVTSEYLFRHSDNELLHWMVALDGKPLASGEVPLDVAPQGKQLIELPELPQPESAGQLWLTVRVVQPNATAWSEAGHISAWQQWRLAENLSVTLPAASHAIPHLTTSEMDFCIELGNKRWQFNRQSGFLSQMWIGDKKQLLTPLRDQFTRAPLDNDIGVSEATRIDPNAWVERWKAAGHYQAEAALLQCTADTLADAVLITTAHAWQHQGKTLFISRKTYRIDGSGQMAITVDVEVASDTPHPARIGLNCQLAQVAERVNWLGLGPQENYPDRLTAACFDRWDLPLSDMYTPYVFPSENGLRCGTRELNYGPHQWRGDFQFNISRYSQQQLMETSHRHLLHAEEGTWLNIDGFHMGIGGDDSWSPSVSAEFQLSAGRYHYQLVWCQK

[5] = inhibitors of intracellular T. cruzi replication, confirmation, NIH3T3 host cells, beta-gal luminescence (AID 2044); type: functional, cell-based;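 note: intracellular parasites grown in NIH/3T3 mouse fibroblasts as host cells; luminescent beta-galactosidase reporter signal from transgenic T. cruzi replicating inside host cells; inhibitors lower the luminescence signal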
HEK293 [6] = test: NOD1 signaling inhibitors, primary screen, cell-based, luminescence, uHTS (AID 1578); type: functional; conditions: Homo sapiens
HEK293 [7] = test: inhibitors of LMP1-driven NF-kB reporter, dose response, cell-based, HEK293, luciferase, cherry-pick (AID 588343); type: functional; conditions: Homo sapiens
INS1 = test: beta cell apoptosis inhibitors, cytokine rescue, dose response, luminescence, retest (AID 449756); type: functional, cell-based; conditions: Rattus norvegicus;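 note: cell death triggered by IL-1 beta plus TNF-alpha plus IFN-gamma mixture; protective hits raise ATP signal compared with cytokine alone wells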
HEK293 [8] = test: NOD2 signaling inhibitors in MDP-stimulated cells, cell-based, uHTS, luminescence (AID 2001); type: functional; conditions: Homo sapiens
[9] = target: Nucleotide-binding oligomerization domain-containing protein 2 (Homo sapiens, UniProt Q9HC29); test: NOD2 signaling inhibitors, cell-based, luminescence, uHTS, HEK293 (AID 1566); type: functional
Sequence of Nucleotide-binding oligomerization domain-containing protein 2 (Q9HC29 whole entry, the tested form may be a part): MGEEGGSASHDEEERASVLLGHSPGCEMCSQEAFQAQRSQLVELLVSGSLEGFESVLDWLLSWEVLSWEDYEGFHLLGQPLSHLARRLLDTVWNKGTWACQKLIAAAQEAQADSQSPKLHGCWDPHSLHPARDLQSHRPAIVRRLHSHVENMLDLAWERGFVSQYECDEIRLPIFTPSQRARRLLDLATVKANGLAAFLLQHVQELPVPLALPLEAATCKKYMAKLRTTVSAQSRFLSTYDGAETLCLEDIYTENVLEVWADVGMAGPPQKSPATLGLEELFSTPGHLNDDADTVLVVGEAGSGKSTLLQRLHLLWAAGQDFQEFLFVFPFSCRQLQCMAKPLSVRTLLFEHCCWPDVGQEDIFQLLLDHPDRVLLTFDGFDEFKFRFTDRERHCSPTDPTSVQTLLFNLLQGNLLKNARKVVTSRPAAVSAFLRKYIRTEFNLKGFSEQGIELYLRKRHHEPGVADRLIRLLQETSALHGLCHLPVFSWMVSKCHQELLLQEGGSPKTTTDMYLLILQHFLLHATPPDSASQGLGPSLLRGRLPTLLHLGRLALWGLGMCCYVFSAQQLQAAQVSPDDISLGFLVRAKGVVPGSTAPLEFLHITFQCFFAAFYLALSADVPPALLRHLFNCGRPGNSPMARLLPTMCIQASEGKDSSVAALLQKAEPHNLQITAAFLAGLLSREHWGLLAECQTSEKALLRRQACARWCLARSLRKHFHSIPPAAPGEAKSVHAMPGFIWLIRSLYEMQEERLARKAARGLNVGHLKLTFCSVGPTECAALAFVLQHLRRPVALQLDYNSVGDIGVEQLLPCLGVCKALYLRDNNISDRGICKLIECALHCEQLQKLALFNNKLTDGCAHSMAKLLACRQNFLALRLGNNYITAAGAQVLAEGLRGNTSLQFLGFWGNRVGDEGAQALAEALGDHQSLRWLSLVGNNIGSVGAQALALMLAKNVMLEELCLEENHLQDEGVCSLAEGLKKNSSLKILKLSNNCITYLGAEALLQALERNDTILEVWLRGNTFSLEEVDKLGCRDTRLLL

HEK293 [10] = test: cells; type: functional, cell-based; conditions: Homo sapiens
HEK293 [11] = test: cells; type: functional, cell-based; conditions: Homo sapiens; remark: listed apart in the source
[12] = target: T2, Heat shock factor protein 1 (Mus musculus, UniProt P38532); test: HSF1 potentiators in luciferase reporter cells, confirmation, cell-based, NIH3T3, luminescence, dose retest (AID 435004); type: functional;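 note: stress induced by proteasome inhibitor MG132 added 30 min after compound; luciferase reporter driven by HSF1 response element in NIH3T3 cells; actives raise luminescence as potentiators of the MG132 stress response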
T2 sequence (P38532 whole entry): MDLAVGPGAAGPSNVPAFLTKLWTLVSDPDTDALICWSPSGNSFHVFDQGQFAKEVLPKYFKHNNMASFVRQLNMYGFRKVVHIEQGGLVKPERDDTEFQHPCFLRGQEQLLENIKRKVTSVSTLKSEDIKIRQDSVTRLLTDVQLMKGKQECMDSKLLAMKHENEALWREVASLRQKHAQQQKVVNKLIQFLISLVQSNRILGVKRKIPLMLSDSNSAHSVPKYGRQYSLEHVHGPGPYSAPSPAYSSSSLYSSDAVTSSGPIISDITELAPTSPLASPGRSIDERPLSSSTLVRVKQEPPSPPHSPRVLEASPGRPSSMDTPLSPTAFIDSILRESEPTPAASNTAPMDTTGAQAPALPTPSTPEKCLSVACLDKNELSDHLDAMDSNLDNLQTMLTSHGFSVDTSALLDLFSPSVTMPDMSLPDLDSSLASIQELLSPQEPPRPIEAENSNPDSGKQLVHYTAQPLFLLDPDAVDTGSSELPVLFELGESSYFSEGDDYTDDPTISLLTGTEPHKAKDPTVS

HEK293 [13] = test: cells; type: functional, cell-based; conditions: Homo sapiens; remark: listed apart in the source
[14] = target: T1, Kappa-type opioid receptor; type: functional; remark: listed apart in the source
[15] = NIH-3T3 fibroblast cytotoxicity, dose response, cytotoxicity control for antifungal single agent project, cell-based, Alamar Blue, dry powder (AID 602188); type: functional
[16] = HepG2 cell cytotoxicity, dose response, cytotoxicity control for Shn3 inhibitor project, CellTiter-Glo, cherry-picked (AID 624134); type: functional, cell-based
[17] = control 3'UTR Renilla luciferase suppression, dose response, counter-screen for Shn3 inhibitor project, cell-based, Clone20-Shn3RL, cherry-picked (AID 624133); type: functional
[18] = target: Benomyl/methotrexate resistance protein (Candida albicans, UniProt P28873); test: CaMdr1 efflux pump inhibitor potency, dose response, singleplex, Cherry Pick1 hits (AID 588608); type: functional
Sequence of Benomyl/methotrexate resistance protein (P28873 whole entry): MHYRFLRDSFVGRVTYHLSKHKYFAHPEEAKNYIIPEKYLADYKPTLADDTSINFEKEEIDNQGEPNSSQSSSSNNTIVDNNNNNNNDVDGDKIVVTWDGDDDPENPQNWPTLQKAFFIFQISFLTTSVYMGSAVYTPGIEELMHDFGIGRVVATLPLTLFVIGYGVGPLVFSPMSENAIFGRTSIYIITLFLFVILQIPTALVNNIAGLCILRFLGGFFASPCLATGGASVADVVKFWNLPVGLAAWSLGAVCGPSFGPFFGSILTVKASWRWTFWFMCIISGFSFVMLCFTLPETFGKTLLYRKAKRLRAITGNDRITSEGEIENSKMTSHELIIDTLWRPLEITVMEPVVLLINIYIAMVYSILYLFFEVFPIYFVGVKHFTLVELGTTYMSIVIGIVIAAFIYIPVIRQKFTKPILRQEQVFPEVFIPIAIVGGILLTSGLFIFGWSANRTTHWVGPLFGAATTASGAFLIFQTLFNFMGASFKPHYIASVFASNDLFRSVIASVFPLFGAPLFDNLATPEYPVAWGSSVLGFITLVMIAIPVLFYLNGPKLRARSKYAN

[19] = target: 26S proteasome non-ATPase regulatory subunit 14 (Homo sapiens, UniProt O00487); test: inhibition of proteasome subunit RPN11 – biochemical, fluorescence polarization, uHTS hits, confirmation (AID 602368); type: functional
Sequence of 26S proteasome non-ATPase regulatory subunit 14 (O00487 whole entry): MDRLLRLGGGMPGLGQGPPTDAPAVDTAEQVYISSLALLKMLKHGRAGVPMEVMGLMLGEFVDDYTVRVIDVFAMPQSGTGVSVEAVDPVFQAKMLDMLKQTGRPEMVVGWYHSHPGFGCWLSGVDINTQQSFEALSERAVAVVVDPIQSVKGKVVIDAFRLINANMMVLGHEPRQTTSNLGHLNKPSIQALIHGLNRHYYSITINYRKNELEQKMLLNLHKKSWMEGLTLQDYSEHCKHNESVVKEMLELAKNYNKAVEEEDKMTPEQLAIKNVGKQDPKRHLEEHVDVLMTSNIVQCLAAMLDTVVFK

[20] = target: 72 kDa type IV collagenase (Homo sapiens, UniProt P08253); test: Dose Response validation of uHTS RPN11 inhibitor hits using a MMP-2 Fluorescence assay.; type: functional
Sequence of 72 kDa type IV collagenase (P08253 whole entry): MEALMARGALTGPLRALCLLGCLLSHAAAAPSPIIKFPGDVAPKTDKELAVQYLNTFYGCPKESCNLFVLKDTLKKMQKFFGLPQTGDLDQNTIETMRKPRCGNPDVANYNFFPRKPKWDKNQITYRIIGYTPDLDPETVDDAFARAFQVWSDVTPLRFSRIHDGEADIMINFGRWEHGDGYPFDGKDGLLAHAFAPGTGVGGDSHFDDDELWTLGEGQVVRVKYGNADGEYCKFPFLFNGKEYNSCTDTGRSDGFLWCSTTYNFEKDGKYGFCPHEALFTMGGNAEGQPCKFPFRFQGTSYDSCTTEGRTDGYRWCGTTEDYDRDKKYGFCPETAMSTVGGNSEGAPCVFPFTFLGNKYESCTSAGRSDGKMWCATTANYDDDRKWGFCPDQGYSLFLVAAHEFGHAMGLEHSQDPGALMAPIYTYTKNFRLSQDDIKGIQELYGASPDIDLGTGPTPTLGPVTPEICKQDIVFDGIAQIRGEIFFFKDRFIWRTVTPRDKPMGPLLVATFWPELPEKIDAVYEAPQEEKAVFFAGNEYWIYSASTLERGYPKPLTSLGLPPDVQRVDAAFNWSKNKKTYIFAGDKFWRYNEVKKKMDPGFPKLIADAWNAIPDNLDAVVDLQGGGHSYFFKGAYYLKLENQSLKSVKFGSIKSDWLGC

[21] = target: T3, Ubiquitin-conjugating enzyme E2 N (Homo sapiens, UniProt P61088); type: functional
T3 sequence (P61088 whole entry): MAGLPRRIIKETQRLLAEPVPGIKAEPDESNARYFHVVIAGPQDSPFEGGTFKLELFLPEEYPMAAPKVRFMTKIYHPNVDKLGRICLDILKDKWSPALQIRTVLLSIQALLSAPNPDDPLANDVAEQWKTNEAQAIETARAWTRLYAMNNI

[22] = inhibitors of firefly luciferase expression or activity, dose response, H4 neuroglioma cells, luminescence (AID 1990); type: functional, cell-based
Prothrombin = Prothrombin (Bos taurus, UniProt P00735); test: thrombin inhibition, dose response, biochemical, fluorescence polarization, uHTS hits (AID 602369); type: functional
[23] = target: Heat shock protein HSP 90-alpha (Homo sapiens, UniProt P07900); type: functional, organism-based
[24] = inhibitors of SNCA 5'UTR-driven reporter translation, confirmation, H4 neuroglioma cells, luminescence (AID 1988); type: functional, cell-based
[25] = target: T4, Apoptotic protease-activating factor 1 (Homo sapiens, UniProt O14727); type: functional
T4 sequence (O14727 whole entry): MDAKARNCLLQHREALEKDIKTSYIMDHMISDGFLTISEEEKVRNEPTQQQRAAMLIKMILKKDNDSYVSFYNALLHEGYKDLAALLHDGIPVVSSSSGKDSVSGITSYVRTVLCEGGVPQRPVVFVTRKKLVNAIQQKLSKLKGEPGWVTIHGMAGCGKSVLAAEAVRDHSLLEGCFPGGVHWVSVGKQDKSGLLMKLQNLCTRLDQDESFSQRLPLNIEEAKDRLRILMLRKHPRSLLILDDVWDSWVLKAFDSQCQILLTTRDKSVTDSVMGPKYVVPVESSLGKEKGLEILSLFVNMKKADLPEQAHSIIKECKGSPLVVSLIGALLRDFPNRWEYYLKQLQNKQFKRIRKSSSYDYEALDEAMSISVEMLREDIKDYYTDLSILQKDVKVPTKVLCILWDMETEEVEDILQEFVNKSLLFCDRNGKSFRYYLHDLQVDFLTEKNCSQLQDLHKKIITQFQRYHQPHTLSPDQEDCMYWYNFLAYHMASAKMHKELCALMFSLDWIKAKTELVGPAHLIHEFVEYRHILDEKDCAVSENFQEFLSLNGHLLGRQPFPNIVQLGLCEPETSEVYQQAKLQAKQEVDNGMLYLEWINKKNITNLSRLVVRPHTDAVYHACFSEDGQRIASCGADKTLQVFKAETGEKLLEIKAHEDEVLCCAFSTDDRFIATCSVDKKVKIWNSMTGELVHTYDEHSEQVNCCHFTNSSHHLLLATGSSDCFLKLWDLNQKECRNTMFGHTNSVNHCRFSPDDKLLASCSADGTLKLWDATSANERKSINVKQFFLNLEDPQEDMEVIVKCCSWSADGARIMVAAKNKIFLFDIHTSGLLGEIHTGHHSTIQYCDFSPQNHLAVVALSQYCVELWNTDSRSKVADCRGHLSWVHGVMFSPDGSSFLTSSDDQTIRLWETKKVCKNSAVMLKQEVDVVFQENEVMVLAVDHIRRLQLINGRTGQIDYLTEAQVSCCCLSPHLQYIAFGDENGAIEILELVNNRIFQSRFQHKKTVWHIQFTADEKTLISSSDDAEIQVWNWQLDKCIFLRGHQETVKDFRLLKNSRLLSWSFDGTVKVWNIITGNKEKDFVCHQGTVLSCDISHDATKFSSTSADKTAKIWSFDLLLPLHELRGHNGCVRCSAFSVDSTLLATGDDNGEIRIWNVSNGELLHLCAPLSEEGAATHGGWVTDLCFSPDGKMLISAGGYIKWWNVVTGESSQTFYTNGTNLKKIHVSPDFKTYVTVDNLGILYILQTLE

Bcl-2-related protein A1 = target: T5, Bcl-2-related protein A1 (Mus musculus, UniProt Q07440); type: functional;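 note: confirmatory dose–response counterscreen on Bfl-1, used to check hits from a UBC13 polyubiquitin inhibitor campaign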
T5 sequence (Q07440 whole entry): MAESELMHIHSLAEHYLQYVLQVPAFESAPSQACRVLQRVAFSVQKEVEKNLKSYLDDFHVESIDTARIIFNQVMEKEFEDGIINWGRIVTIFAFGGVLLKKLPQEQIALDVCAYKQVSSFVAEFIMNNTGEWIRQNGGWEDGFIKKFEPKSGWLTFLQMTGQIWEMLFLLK

[26] = target: T3, Ubiquitin-conjugating enzyme E2 N; type: functional; remark: listed apart in the source
[27] = target: T6, DNA repair protein RAD52 homolog (Homo sapiens, UniProt P43351); type: functional, biochemical
T6 sequence (P43351 whole entry): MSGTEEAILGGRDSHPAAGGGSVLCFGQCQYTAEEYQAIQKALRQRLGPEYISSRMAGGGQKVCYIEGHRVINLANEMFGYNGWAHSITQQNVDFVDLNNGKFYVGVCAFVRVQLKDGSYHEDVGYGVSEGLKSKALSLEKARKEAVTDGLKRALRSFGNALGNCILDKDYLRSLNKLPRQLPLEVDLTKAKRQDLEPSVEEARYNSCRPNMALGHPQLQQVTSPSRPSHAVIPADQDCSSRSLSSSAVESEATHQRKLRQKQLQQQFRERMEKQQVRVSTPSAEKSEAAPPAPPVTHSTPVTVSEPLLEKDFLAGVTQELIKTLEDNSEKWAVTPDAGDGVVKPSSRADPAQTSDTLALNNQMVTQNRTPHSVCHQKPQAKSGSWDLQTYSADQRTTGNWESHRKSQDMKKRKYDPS

[28] = target: Melanin-concentrating hormone receptor 1 (Homo sapiens, UniProt Q99705); test: Late-stage fluorescence-based counterscreen for antagonists of the G-protein coupled receptor 7 (GPR7): cell-based dose response assay to identify antagonists of the melanin-concentrating hormone receptor 1 (MCHR1) Set 5.; type: functional
Sequence of Melanin-concentrating hormone receptor 1 (Q99705 whole entry): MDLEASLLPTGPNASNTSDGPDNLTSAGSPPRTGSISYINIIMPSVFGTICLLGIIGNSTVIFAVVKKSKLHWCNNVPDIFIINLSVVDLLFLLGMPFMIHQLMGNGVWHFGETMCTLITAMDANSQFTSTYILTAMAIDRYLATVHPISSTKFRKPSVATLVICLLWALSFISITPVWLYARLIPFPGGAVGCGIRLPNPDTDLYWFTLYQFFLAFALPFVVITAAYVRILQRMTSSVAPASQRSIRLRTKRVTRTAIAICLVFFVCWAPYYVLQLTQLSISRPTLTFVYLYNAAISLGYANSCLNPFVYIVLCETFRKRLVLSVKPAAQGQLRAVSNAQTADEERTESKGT

[29] = target: T7, Neuropeptides B/W receptor type 1 (Homo sapiens, UniProt P48145); test: GPR7 antagonist potency, late-stage follow-up, cell-based, fluorescence, dose response, set 5 (AID 588566); type: functional
T7 sequence (P48145 whole entry): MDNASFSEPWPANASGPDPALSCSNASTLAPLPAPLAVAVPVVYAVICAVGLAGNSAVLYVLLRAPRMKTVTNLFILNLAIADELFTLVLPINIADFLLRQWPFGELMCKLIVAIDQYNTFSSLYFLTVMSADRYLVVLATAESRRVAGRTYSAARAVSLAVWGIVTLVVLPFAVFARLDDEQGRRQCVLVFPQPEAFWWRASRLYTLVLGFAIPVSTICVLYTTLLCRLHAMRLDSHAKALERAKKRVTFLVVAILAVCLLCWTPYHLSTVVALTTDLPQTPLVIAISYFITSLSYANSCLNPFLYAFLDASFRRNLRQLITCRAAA

T1 sequence (P41145 whole entry): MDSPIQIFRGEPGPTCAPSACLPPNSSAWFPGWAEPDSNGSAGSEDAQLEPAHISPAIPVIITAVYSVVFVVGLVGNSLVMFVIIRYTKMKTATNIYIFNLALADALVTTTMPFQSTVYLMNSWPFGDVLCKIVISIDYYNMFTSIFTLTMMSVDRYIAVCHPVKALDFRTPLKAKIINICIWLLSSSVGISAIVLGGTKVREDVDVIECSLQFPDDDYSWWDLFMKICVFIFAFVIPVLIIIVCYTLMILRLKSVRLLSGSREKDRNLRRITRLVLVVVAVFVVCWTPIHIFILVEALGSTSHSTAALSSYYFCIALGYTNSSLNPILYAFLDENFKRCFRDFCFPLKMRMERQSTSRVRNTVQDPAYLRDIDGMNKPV

**Q.** With `O=C(Nc1nc(-c2ccccn2)cs1)c1ccc(Cl)s1` as the compound, how does the IC50 [1] read?
**A.** Its IC50 is > 32 µM.

**Q.** And the IC50 [2]?
**A.** Its IC50 is 36.8 µM (inactive).

**Q.** And the EC50 [3]?
**A.** Its EC50 is 0.506 µM (active).

**Q.** What about the AC50 [4] of the same compound?
**A.** The AC50 was 0.817 µM (active).

**Q.** And the EC50 (Beta-galactosidase)?
**A.** Its EC50 is > 31.5 µM (inactive).

**Q.** What about the EC50 [5] of the same compound?
**A.** The EC50 was 0.279 µM (active).

**Q.** What about the EC50 (HEK293 [6]) of the same compound?
**A.** Its EC50 is 7.06 µM (active).

**Q.** What about the AC50 (HEK293 [7]) of the same compound?
**A.** Its AC50 is 0.515 µM (active).

**Q.** And the AC50 (INS1)?
**A.** The AC50 was 0.759 µM (active).

**Q.** What about the IC50 (HEK293 [8]) of the same compound?
**A.** The IC50 was 4.18 µM (active).

**Q.** And the EC50 [9]?
**A.** The EC50 was > 20 µM (inactive).

**Q.** What about the IC50 (HEK293 [10]) of the same compound?
**A.** Its IC50 is 8.39 µM (active).

**Q.** What about the IC50 (HEK293 [11]) of the same compound?
**A.** The IC50 was > 20 µM (inactive).

**Q.** And the EC50 [12]?
**A.** The EC50 was 2.06 µM (inconclusive).

**Q.** And the IC50 (HEK293 [13])?
**A.** Its IC50 is > 20 µM (inactive).

**Q.** What about the IC50 [14] of the same compound?
**A.** The IC50 was > 31.5 µM (inactive).

**Q.** What about the AC50 [15] of the same compound?
**A.** The AC50 was 0.949 µM (active).

**Q.** And the AC50 [16]?
**A.** The AC50 was 47.5 µM (active).

**Q.** And the AC50 [17]?
**A.** The AC50 was 0.74 µM (active).

**Q.** For `Nc1c(Cl)cc(C2=NCCn3nc4ccccc4c32)cc1Cl`, which EC50 [18] is on record?
**A.** Its EC50 is 3.99 µM (active).

**Q.** What does the source list for `CCCCCCCCCCOC(=O)Cn1c(COc2ccc(Cl)cc2)[n+](C)c2ccccc21`?
**A.** IC50 [19]: 19.1 µM (active); IC50 [20]: > 100 µM (inactive); IC50 [21]: 6.71 µM (active); EC50 [22]: 12.9 µM (active); IC50 (Prothrombin): 44.6 µM (active); AC50 [23]: 7.94 µM (active); EC50 [24]: > 120 µM (not active); IC50 [25]: 8.57 µM (active); IC50 (Bcl-2-related protein A1): 10.1 µM (active); IC50 [26]: 6.53 µM (active); AC50 [27]: 7.08 µM (active)

**Q.** For `COc1ccc(Oc2c(Cl)cnn(CC(=O)OC(C)(C)C)c2=O)cc1`, which IC50 [28] is on record?
**A.** The IC50 was ~19.9 µM (inactive).

**Q.** And the IC50 [29]?
**A.** The IC50 was 14 µM (inactive).

**Q.** Which IC50 [28] does the source give for `CCOc1ccc(Oc2c(SC)cnn(Cc3cccc4ccccc34)c2=O)cc1` here?
**A.** Its IC50 is 19.6 µM (inactive).

**Q.** And the IC50 [29]?
**A.** The IC50 was > 20 µM (inactive).
